In patent US10159678B2, “Methods to decrease susceptibility to asthmatic bronchoconstriction” (Cornell University, priority 2012, dated 2018):

Key:
[1] = system: lung sphingolipid composition; test: Lung sphingolipid composition by UPLC-MS/MS after intranasal myriocin; assay type: in vivo, BALB/c mice
Method: Animal studies described herein were conducted under protocols approved by the Institutional Animal Care and Use Committee of Weill Cornell Medical College. Female BALB/c mice, obtained from Taconic Farms (Tarrytown, N.Y.). Animals were housed under specific pathogen-free conditions and used at 6 to 8 weeks of age. Myriocin (Enzo Life Sciences, Plymouth Meeting, Pa.) was freshly prepared from a 10 mM stock solution to a 1 mM or 100 μM solution in 0.9% saline and 0.05% fatty acid free bovine serum albumin and 50 μl were administered intranasally. Control animals received the vehicle solution (1% DMSO in 0.9% saline, […] BSA) or were naïve. Three hours later the animals underwent pulmonary function testing and were sacrificed. Heterozygous SPT-deficient mice (Sptlc2^+/−) or homozygous controls (Sptlc2^+/+) were bred, identified by genotyping using procedures like those described by Hojjati et al. (2005) and used at 6-8 weeks of age.
Lungs were harvested following perfusion with phosphate-buffered saline (PBS, Invitrogen, Carlsbad, Calif.) containing 0.6 mM ethylenediamine tetra acetic acid dipotassium salt dehydrate (EDTA, Invitrogen) via the right ventricle to remove blood cells from the pulmonary circulation. The lungs were then homogenized in normal PBS. De-novo sphingolipid synthesis was assessed by evaluating incorporation of ^3H-serine (24.1 Ci/mmol, Perkin Elmer (Boston, Mass.) into ceramide and sphingosine. Sphingolipid synthesis through the recycling pathway was assessed by evaluating incorporation of ^3H-sphingosine (18.2 Ci/mmol, Perkin Elmer (Boston, Mass.) into ceramide and sphingomyelin. In both assays, equal amounts of fresh lung homogenates were incubated for 30 min at 37° C. with 2 μl of the radioactive tracer, followed by lyophilization to determine dry weight, lipid extraction with chloroform/methanol/water (1:1:0.9). The organic phase was evaporated, dissolved in 50 μl chloroform/methanol (1:1) spotted on […] chromatography plates (TLC) (Merck Silica gel 60, Darmstadt, Germany) and chromatographed for 25 min with chloroform-methanol-ammonium hydroxide (65:25:4 v/v). Ceramides, sphingomyelin, phosphatidylserine, sphinganine and sphingosine, all dissolved at 1 μg/μl were run as standards. The lipids were identified according to their Rf values after visualization in an iodine vapor tank. The TLC plate was cut at the corresponding lipid spot, mixed with scintillation fluid (Ultima Gold, Packard Instrument Company, CT) and analyzed in a scintillation counter (Perkin Elmer Wallac, Gaithersburg, Md.). Results are calculated as dpm/mg protein.
Sphinganine, sphingosine, sphinganine-1-phosphate, sphingosine-1-phosphate, ceramides (Cer16, Cer18, Cer20, Cer22, Cer24:1, Cer24) were quantified in lung homogenates by ultra-performance liquid chromatography-tandem mass spectrometry (UPLC-MS/MS), on a Waters Xevo, equipped with a Waters BEH Phenyl UPLC Column (ACQUITY UPLC BEH Phenyl Column, 3.0×100 mm, 1.7 μm and a ACQUITY BEH Phenyl VanGuard Pre-column, 2.1×5 mm, 1.7 μm in the Columbia University Lipid Core as reported by Shaner et al. (2009) with minor modifications. […] of an internal standard mix (Avanti Polar Lipids, Mix 1) in ethanol, 0.5 ml methanol and 0.25 ml chloroform were added to the lyophilized lung homogenates and sonicated for 12 h at 48° C. After centrifugation at 10,000 g for 5 min, the supernatant was evaporated in a glass tube and resuspended in 100 μl methanol. 10 μl were injected into the UPLC-MS/MS. Results are calculated as pmol/mg.
Myriocin is a potent and specific inhibitor of SPT that affects SPT independent of orm. To assess if direct administration of myriocin to the respiratory tract affects pulmonary sphingolipid synthesis, the lung sphingolipid composition was determined by ultra-performance liquid chromatography-tandem mass spectrometry (UPLC-MS/MS) 3 h following intranasal administration of myriocin.

isolated bronchial rings = test: Myograph contractile response of bronchial rings isolated from myriocin-treated mice; assay type: in vivo; conditions: rings isolated from mice given myriocin (20 μg) intranasally; dose-dependent manner; FIG. 3C, 3D
Method: To directly assess bronchial reactivity bronchi were dissected from myriocin treated mice, Sptlc2^+/− or naïve mice, and mounted on hooks in a multiwire myograph system (DMT, Ann Arbor, Mich.) where they were kept at a resting tension of 200-250 mg in Krebs Henseleit (KH) solution at 37° C. (95% O2, 5% CO2). In addition, bronchial rings from naïve mice were bathed in myriocin (10 μM) for 3 h in the myograph before analysis. Mechanical forces were measured isometrically with force transducers interfaced to a data acquisition system (ADInstruments, Colorado Springs, Colo.) and analyzed with LabChart6Pro for Windows. Potassium (80 mM) was used to achieve maximum contraction and methacholine (0.01-10 μM) was added 30 min after washout of the K^+ solution. Contractile responses were measured as percentage of the response to K^+.

human bronchial rings = test: Myograph contractile response of human bronchial rings in myriocin-containing bath; conditions: 90 min in myriocin-containing bath solution (10 μM), then methacholine; FIG. 3E
Method: Human bronchial tissues were obtained from patients (n=15) undergoing surgery for lung cancer. The study was approved by the IRB at Weill Cornell Medical College. Within 30 min following resection, segments of bronchi with an inner diameter of 3-5 mm were taken from areas as far removed from the malignancy as possible. Bronchi were placed in oxygenated KH and following removal of adhering fat and connective tissues four to eight rings of the same bronchus were prepared. Each set of bronchial rings was suspended under an initial tension of 300-350 mg in KH solution containing 0.01% BSA, bubbled with 95% O2 and 5% CO2 at 37° C. and then washed every 15 min for 1 h. K^+ solution (80 mM) was then used to achieve maximum contraction and myriocin (10 μM) or solvent was added 30 min after washout of the K^+ solution. Methacholine (0.01-1 μM) was added after 90 minutes. Experiments were conducted on parallel groups of four rings at a time. Contractile responses were measured and analyzed as for the murine rings.

lung inflammation = test: Assessment of inflammation (BAL cells, lung histology, cytokine mRNA) after myriocin; assay type: in vivo, mice
Method: BAL was collected by intratracheal instillations of PBS (2×0.5 ml). Cell differentials were determined by Giemsa stain on cytospin preparations. Cell viability was determined by trypan blue exclusion. Expression of TNF-α, IL-6 and IL-1β in the lung was quantified by TaqMan RealTime RT-PCR. RNA was extracted using TRIzol (Invitrogen). […] RNA levels were quantified using the ΔΔCt method and normalized to expression of murine ribosomal 18s (4310893E, Applied Biosystems). For lung histology, lungs were inflated with 4% paraformaldehyde at 25 cm H2O and 5 μm paraffin sections were stained with hematoxylin and eosin (H&E).

CCCCCCC(=O)CCCCCC/C=C/C[C@@H](O)[C@H](O)[C@@](N)(CO)C(=O)O [myriocin]
sphinganine in the lung ([1]; 3 h following intranasal administration of myriocin (20 μg), FIG. 1A): reduced
sphingosine levels in the lung ([1]; 3 h following intranasal myriocin (20 μg), FIG. 1B): not significantly decreased
sphinganine-1P (Sa1P) levels in the lung ([1]; 3 h following intranasal myriocin (20 μg), FIG. 1C): not significantly decreased
sphingosine-1P (S1P) levels in the lung ([1]; 3 h following intranasal myriocin (20 μg), FIG. 1D): not significantly decreased
sum of ceramides (C14, C16, C18, C20, C22, C24, C24:1) in the lung ([1]; 3 h following intranasal myriocin (20 μg), FIG. 1E-1G): decreased
certain individual ceramides in the lung ([1]; 3 h following intranasal myriocin, FIGS. 1F and 1G): individually decreased
contractile responses of bronchial rings to methacholine (isolated bronchial rings): increased
contractile force of human bronchial rings (human bronchial rings): increased contractile force
expression of IL-6 in the lungs (lung inflammation; myriocin (20 μg) vs controls, FIG. 4H): No increases
expression of IL-1β in the lungs (lung inflammation; myriocin (20 μg) vs controls, FIG. 4I): No increases
TNF-α expression in the lungs (lung inflammation; myriocin (20 μg) vs controls, FIG. 4J): less
number of neutrophils in the BAL (lung inflammation; myriocin-treated (20 μg) animals, FIG. 4B): small increase
inflammatory changes in lung sections (H&E) (lung inflammation; myriocin-treated (20 μg) mice): No inflammatory changes
